Source: paper PMC5681660, “Reduced hepatitis B and D viral entry using clinically applied drugs as novel inhibitors of the bile acid transporter NTCP” (Scientific Reports, 2017)
Where a name gives a salt, the structure may show the parent alone. Read-outs that look alike come from different tables or passages of the source.

Columns and labels:
[1] = molecular target: T1, human NTCP (Homo sapiens, UniProt Q14973); assay: Screening fluorescent competitive Myrcludex B-FITC binding assay (96-well, 10 µM drug)
T1 sequence (Q14973 1-349): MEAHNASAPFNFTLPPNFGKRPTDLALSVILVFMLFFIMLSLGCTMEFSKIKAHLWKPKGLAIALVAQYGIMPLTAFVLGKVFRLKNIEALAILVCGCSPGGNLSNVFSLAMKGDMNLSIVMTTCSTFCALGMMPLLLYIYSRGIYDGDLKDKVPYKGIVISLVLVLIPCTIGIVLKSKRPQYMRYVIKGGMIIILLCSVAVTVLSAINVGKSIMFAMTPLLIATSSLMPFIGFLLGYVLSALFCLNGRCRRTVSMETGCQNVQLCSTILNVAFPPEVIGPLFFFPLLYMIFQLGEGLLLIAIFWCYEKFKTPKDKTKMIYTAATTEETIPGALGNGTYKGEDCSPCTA

[2] = molecular target: T1, human NTCP; assay: Screening taurocholate uptake assay (96-well, [14C]taurocholate, 10 µM drug)
[3] = screen, 10 µM drug, Myrcludex B-FITC binding
[4] = combined ranking from functional and binding screening assays
[5] = screen, 10 µM drug, taurocholate uptake
[6] = Prestwick library screen, 10 µM drug, B-score of Myrcludex B-FITC binding
[7] = Prestwick library screen, 10 µM drug, B-score of taurocholate uptake
[8] = combined ranking from functional and binding assay B-scores
[9] = Prestwick library screen, Myrcludex B-FITC binding, 10 µM drug
[10] = Prestwick library screen, taurocholate uptake, 10 µM drug
[11] = ranking score beside the functional and binding assay B-scores of the screen

## CCN(CC)CCOC(=O)C(c1ccccc1)c1ccccc1 [Adiphenine hydrochloride]
[1]; [3]
  B-score binding assay: -0.701
[2]; [4]
  Ranking score: 440.174
[2]; [5]
  B-score functional assay: -0.012

## C[C@]12CCC(=O)C=C1CC[C@@H]1[C@@H]2C(=O)C[C@]2(C)C(=O)CC[C@@H]12 [Adrenosterone]
[1]; [3]
  B-score binding assay: -0.699
[2]; [4]
  Ranking score: 291.781
[2]; [5]
  B-score functional assay: -0.902

## CCCSc1ccc2nc(NC(=O)OC)[nH]c2c1 [Albendazole]
[1]
  B-score binding assay: 0.993
[2]
  B-score functional assay: -0.13
  Ranking score: 731.855

## C=CC[N@@+]12CC[C@@]34c5ccccc5N5/C=C6/[C@H]7C[C@H]8[C@@]9(CC[N@@+]8(CC=C)C/C7=C/CO)c7ccccc7N(/C=C(/[C@@H](C[C@@H]31)/C(=C\CO)C2)[C@H]54)[C@@H]69.[Cl-].[Cl-] [Alcuronium chloride]
[1]; [3]
  B-score binding assay: -1.767
[2]; [4]
  Ranking score: 375.739
[2]; [5]
  B-score functional assay: 1.096

## NCCCC(O)(P(=O)(O)O)P(=O)(O)O [Alendronate sodium]
[1]; [3]
  B-score binding assay: -0.968
[2]; [4]
  Ranking score: 453.598
[2]; [5]
  B-score functional assay: 0.279

## CC(=O)OCC(=O)[C@H]1CC[C@H]2[C@@H]3CC[C@H]4C[C@H](O)CC[C@]4(C)[C@H]3C(=O)C[C@]12C [Alfadolone acetate]
[1]; [6]
  B-score binding assay: 2.253
[2]; [7]
  B-score functional assay: 0.626
[2]; [8]
  Ranking score: 1074.24

## Oc1ncnc2[nH]ncc12 [Allopurinol]
[1]; [9]
  B-score binding assay: 0.547
[2]; [10]
  B-score functional assay: 0.076
[2]; [11]
  Ranking score: 820.729

## CCCCC[C@H](O)/C=C/[C@H]1[C@H](O)CC(=O)[C@@H]1CCCCCCC(=O)O [Alprostadil]
[1]; [9]
  B-score binding assay: 0.02
[2]; [10]
  B-score functional assay: 0.966
[2]; [11]
  Ranking score: 841.475

## C=CCSCC1Nc2cc(Cl)c(S(N)(=O)=O)cc2S(=O)(=O)N1 (stereo not drawn) [Althiazide]
[1]; [6]
  B-score binding assay: 0.861
[2]; [7]
  B-score functional assay: 0.092
[2]; [8]
  Ranking score: 866.45

## CCN(CCCc1ccccc1)CCCc1ccccc1.O=C(O)CC(O)(CC(=O)O)C(=O)O [Alverine citrate salt]
[1]; [3]
  B-score binding assay: -0.052
[2]; [4]
  Ranking score: 318.591
[2]; [5]
  B-score functional assay: -1.552

## Cl.Nc1c(Br)cc(Br)cc1CNC1CCC(O)CC1 (stereo not drawn) [Ambroxol hydrochloride]
[1]; [6]
  B-score binding assay: 1.513
[2]; [7]
  B-score functional assay: 0.006
[2]; [8]
  Ranking score: 860.528

## CCN(CC)C(C)C(=O)c1ccccc1 (stereo not drawn) [Amfepramone hydrochloride]
[1]; [6]
  B-score binding assay: 2.906
[2]; [7]
  B-score functional assay: 0.339
[2]; [8]
  Ranking score: 1034.63

## Cc1c(N(C)C)c(=O)n(-c2ccccc2)n1C [Amidopyrine]
[1]; [3]
  B-score binding assay: -1.103
[2]; [4]
  Ranking score: 343.366
[2]; [5]
  B-score functional assay: -0.111

## NCCCNCCSP(=O)(O)O [Amifostine]
[1]; [9]
  B-score binding assay: 0.481
[2]; [10]
  B-score functional assay: 0.006
[2]; [11]
  Ranking score: 764.099

## NCC[C@H](O)C(=O)N[C@@H]1C[C@H](N)[C@@H](O[C@H]2O[C@H](CN)[C@@H](O)[C@H](O)[C@H]2O)[C@H](O)[C@H]1O[C@H]1O[C@H](CO)[C@@H](O)[C@H](N)[C@H]1O [Amikacin hydrate]
[1]; [6]
  B-score binding assay: 0.912
[2]; [7]
  B-score functional assay: 1.395
[2]; [8]
  Ranking score: 1074.44

## N=C(N)NC(=O)c1nc(Cl)c(N)nc1N [Amiloride hydrochloride dihydrate]
[1]; [3]
  B-score binding assay: 1.12
[2]; [4]
  Ranking score: 420.464
[2]; [5]
  B-score functional assay: -1.628

## NCCCCCC(=O)O [Aminocaproic acid]
[1]; [6]
  B-score binding assay: 1.053
[2]; [7]
  B-score functional assay: 1.656
[2]; [8]
  Ranking score: 1108.16

## Nc1ccc(C(=O)NCC(=O)O)cc1 [Aminohippuric acid]
[1]; [6]
  B-score binding assay: 0.866
[2]; [7]
  B-score functional assay: 1.44
[2]; [8]
  Ranking score: 1073.5

## c1ccc(CNc2ncnc3[nH]cnc23)cc1 [Aminopurine, 6-benzyl]
[1]; [3]
  B-score binding assay: -1.308
[2]; [4]
  Ranking score: 337.92
[2]; [5]
  B-score functional assay: -0.027

## CCCCc1oc2ccccc2c1C(=O)c1cc(I)c(OCCN(CC)CC)c(I)c1 [Amiodarone hydrochloride]
[1]; [9]
  B-score binding assay: 1.025
[2]; [10]
  B-score functional assay: 0.027
[2]; [11]
  Ranking score: 845.421

## CN(C)CCCO[C@@H]1[C@H]2OC(C)(C)O[C@H]2O[C@@H]1[C@H](O)CO [Amiprilose hydrochloride]
[1]; [9]
  B-score binding assay: 0.378
[2]; [10]
  B-score functional assay: 0.017
[2]; [11]
  Ranking score: 760.053

## CCN1CCCC1CNC(=O)c1cc(S(=O)(=O)CC)c(N)cc1OC (stereo not drawn) [Amisulpride]
[1]; [6]
  B-score binding assay: 0.863
[2]; [7]
  B-score functional assay: 0.107
[2]; [8]
  Ranking score: 873.097

## CN(C)CCC=C1c2ccccc2CCc2ccccc21.Cl [Amitryptiline hydrochloride]
[1]; [9]
  B-score binding assay: 2.835
[2]; [10]
  B-score functional assay: -0.217
[2]; [11]
  Ranking score: 769.935

## CCOC(=O)C1=C(COCCN)NC(C)=C(C(=O)OC)C1c1ccccc1Cl (stereo not drawn) [Amlodipine]
[1]; [6]
  B-score binding assay: 2.427
[2]; [7]
  B-score functional assay: 0.5
[2]; [8]
  Ranking score: 1057.69

## CCN(CC)Cc1cc(Nc2ccnc3cc(Cl)ccc23)ccc1O.Cl.Cl.O.O [Amodiaquin dihydrochloride dihydrate]
[1]; [9]
  B-score binding assay: 1.445
[2]; [10]
  B-score functional assay: -0.477
[2]; [11]
  Ranking score: 658.143

## Cc1c(N)c(=O)n(-c2ccccc2)n1C [Ampyrone]
[1]
  B-score binding assay: 0.217
[2]
  B-score functional assay: 0.135
  Ranking score: 788.348

## Nc1cc(-c2ccncc2)c[nH]c1=O [Amrinone]
[1]; [3]
  B-score binding assay: -0.056
[2]; [4]
  Ranking score: 350.268
[2]; [5]
  B-score functional assay: -1.236

## O=C1CN2Cc3c(ccc(Cl)c3Cl)N=C2N1 [Anagrelide]
[1]; [6]
  B-score binding assay: 0.622
[2]; [7]
  B-score functional assay: 0.197
[2]; [8]
  Ranking score: 871.654

## C[C@]12CC[C@@H](O)C[C@@H]1CC[C@@H]1[C@@H]2CC[C@]2(C)C(=O)CC[C@@H]12 [Androsterone]
[1]
  B-score binding assay: 1.069
[2]
  B-score functional assay: 0.451
  Ranking score: 969.912

## COc1ccc(-c2cc(=S)ss2)cc1 [Anethole-trithione]
[1]; [9]
  B-score binding assay: -0.048
[2]; [10]
  B-score functional assay: 0.437
[2]; [11]
  Ranking score: 719.937

## COc1ccc(C(=O)N2CCCC2=O)cc1 [Aniracetam]
[1]; [3]
  B-score binding assay: -0.157
[2]; [4]
  Ranking score: 340.074
[2]; [5]
  B-score functional assay: -1.196

## c1ccc(CN(CC2=NCCN2)c2ccccc2)cc1 [Antazoline hydrochloride]
[1]; [6]
  B-score binding assay: 0.166
[2]; [7]
  B-score functional assay: 1.194
[2]; [8]
  Ranking score: 927.719

## CN[C@@H]1[C@@H](O[C@H]2O[C@H](CO)[C@@H](N)[C@H](O)[C@H]2O)OC2C[C@@H](N)[C@@H](O[C@H]3[C@H](O)[C@@H](O)[C@H](N)C[C@@H]3N)OC2[C@@H]1O (stereo partly drawn) [Apramycin]
[1]; [3]
  B-score binding assay: -0.447
[2]; [4]
  Ranking score: 397.98
[2]; [5]
  B-score functional assay: -0.431

## OC[C@H]1O[C@@H](Oc2ccc(O)cc2)[C@H](O)[C@@H](O)[C@@H]1O [Arbutin]
[1]; [6]
  B-score binding assay: 0.372
[2]; [7]
  B-score functional assay: 0.864
[2]; [8]
  Ranking score: 944.447

## CC1CNc2c(cccc2S(=O)(=O)N[C@@H](CCCNC(=N)N)C(=O)N2CC[C@@H](C)C[C@@H]2C(=O)O)C1 (stereo partly drawn) [Argatroban]
[1]; [9]
  B-score binding assay: 0.437
[2]; [10]
  B-score functional assay: -0.168
[2]; [11]
  Ranking score: 668.874
